Laboratory results from paper PMC9844538 (Nature chemical biology, 2022).
Starred links: 1 amine or outer side, 2 acyl side, 3 side chain; linkers in the order of their positions; H or OH if unused. Positions of bridges follow the written chain, without caps; N, C: chain ends. Non-standard residues stand in square brackets, D forms with d. Residues, ends and D or L forms follow the SMILES beside them. *: point of attachment. βAsp = O=C(O)[C@H](CC(=O)[*:2])N[*:1]; His(π-Me) = Cn1cncc1C[C@H](N)C(=O)O; For = O=C*

How the values were obtained:
[1] = tested on: Mycobacterium tuberculosis H37Rv mc^26020 gyrA G88C; assay: MIC, broth microdilution; format: cell-based
[2] = tested on: Mycobacterium tuberculosis H37Rv mc^26020 gyrA G88S; assay: MIC, broth microdilution; format: cell-based
[3] = tested on: M. tuberculosis (GyrA D94N); format: cell-based, Mycobacterium tuberculosis
[4] = tested on: M. tuberculosis bacA (Rv1819c) mutants (L469P, L470P and S577R); format: cell-based, Mycobacterium tuberculosis

## COc1c(N2C[C@@H]3CCCN[C@@H]3C2)c(F)cc2c(=O)c(C(=O)O)cn(C3CC3)c12 [moxifloxacin]
[1]
  susceptibility of GyrA G88C mutant: resistant
[2]
  susceptibility of GyrA G88S mutant: more susceptible

## C[C@@H](O)[C@H](NC(=O)[C@H](Cc1c[nH]c2ccccc12)NC=O)C(=O)N[C@H](CCCNC(=N)N)C(=O)N[C@@H]1C(=O)N[C@@H](Cc2cncn2C)C(=O)N[C@H](C(=O)O)CC(=O)N[C@H](CO)C(=O)N[C@@H](Cc2ccccc2)C(=O)NCC(=O)N[C@H](CCCNC(=N)N)C(=O)N[C@@H](CO)C(=O)N[C@H](C(=O)O)CC(=O)O[C@@H]1C [evybactin] (For-WT[dR]T[His(π-Me)][βAsp][dS]FG[dR]S[βAsp]; ester 4-C)
[3]
  effect of GyrA D94N mutation on susceptibility: did not have any effect

## bleomycin
[4]
  MIC (after shift): 1 µg/mL
